Values quoted from earlier work as cited in US20250312313A1, “PHARMACEUTICAL COMPOSITION FOR SUBLINGUAL ADMINISTRATION OF CLONIDINE” (NOVUMGEN LIMITED, priority 2022, published 2025).

Conditions: oral

absorption from the gastrointestinal tract: almost completely absorbed
SMILES: Clc1cccc(Cl)c1N=C1NCCN1 [Clonidine]
